Values joined by “and” are separate entries in the source; they are usually repeats but may differ in a detail not shown here. Equal entries are not always repeated.
Each compound was assayed against Polyketide synthase Pks13 (Mycobacterium tuberculosis (strain ATCC 25618 / H37Rv), UniProt I6X8D2) (assay: Mycobacterium tuberculosis Polyketide synthase 13 Thioesterase (PKS13)).
Polyketide synthase Pks13, sequence (I6X8D2 whole entry): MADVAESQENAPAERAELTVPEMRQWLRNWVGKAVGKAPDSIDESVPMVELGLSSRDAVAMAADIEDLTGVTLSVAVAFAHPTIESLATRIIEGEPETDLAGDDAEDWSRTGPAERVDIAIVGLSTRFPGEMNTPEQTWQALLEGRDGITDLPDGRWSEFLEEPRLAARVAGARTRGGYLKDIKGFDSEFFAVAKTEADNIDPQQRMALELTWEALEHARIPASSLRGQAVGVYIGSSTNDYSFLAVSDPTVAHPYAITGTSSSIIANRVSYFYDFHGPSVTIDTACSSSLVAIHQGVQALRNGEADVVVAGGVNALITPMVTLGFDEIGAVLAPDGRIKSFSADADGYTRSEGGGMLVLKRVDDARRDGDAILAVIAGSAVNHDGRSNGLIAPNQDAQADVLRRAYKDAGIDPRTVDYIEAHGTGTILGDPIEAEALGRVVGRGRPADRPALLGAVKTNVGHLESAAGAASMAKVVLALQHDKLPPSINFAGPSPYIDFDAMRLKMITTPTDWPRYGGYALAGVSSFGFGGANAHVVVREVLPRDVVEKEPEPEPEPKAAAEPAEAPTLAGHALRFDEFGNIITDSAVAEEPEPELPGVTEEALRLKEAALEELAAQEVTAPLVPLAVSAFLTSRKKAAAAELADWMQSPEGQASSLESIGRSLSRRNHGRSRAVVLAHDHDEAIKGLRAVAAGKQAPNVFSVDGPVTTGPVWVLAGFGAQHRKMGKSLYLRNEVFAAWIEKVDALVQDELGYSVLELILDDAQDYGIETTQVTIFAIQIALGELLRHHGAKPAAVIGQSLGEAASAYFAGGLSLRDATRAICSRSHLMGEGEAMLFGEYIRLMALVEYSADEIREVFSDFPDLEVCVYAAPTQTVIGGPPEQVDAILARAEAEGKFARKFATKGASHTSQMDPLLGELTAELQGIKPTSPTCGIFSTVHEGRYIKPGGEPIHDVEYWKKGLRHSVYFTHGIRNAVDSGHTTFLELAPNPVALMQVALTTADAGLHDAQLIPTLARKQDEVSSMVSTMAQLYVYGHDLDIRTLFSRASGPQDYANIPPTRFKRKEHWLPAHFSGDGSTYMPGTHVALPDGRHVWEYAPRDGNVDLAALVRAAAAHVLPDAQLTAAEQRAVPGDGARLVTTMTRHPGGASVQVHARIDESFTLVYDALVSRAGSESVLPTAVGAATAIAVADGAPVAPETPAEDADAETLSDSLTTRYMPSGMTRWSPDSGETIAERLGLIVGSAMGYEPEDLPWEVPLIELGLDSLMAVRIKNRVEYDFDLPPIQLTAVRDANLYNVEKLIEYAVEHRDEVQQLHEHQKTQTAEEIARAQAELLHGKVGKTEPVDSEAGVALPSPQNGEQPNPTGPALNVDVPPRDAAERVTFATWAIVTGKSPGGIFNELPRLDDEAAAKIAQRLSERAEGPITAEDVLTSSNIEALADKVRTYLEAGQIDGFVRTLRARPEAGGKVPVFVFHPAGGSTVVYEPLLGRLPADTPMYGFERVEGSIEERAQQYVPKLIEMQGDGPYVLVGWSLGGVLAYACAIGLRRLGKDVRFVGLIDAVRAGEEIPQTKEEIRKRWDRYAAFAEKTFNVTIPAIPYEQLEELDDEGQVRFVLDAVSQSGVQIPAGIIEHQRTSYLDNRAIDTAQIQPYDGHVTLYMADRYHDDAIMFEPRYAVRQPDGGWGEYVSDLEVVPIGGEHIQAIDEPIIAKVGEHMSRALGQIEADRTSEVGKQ
Format: functional
For `CS(=O)(=O)N1CCCC1c1cccc(Cc2ccccc2F)n1` (stereo unspecified), the IC50 was over 100 µM. Compound `NC(=O)N1CCCN(CCc2nc(-c3cccc(Cl)c3)no2)CC1` has an IC50 of over 100 µM. `CN(CC1CCCCC1)C(=O)c1ccc(-n2ncc(C#N)c2N)cc1` was tested, and the IC50 was 40.8 µM and 6.64 µM. With `c1cnc(N2CCC3(CCCN(CC4CCCCC4)C3)C2)cn1` (stereo unspecified) the IC50 was over 100 µM. Compound `Cc1ccc(C)c(-n2ncc(C(=O)NCC3COC(C)(C)O3)c2N)c1` (stereo unspecified) has an IC50 of over 100 µM. `CC(C)(C)C(=O)N1CCC(n2nc(-c3ccco3)ccc2=O)CC1` gave an IC50 of over 100 µM. In the case of `CC1CCc2nc(O)c(C(=O)NCCCN3CCN(C)CC3)cc2C1` (stereo unspecified), the IC50 is reported as 31.6 µM and 37.1 µM. `CCN(CC)C(=O)c1cc(C2CCCN2C)ccn1` (stereo unspecified) gave an IC50 of over 100 µM. In the case of `CN1CCc2ccc(NCc3cccs3)cc2C1=O`, the IC50 is reported as over 100 µM. For `COc1cc2nc(NCc3cc(C)on3)nc(N)c2cc1OC`, the IC50 was > 100 µM and 89.5 µM. With `CS(=O)(=O)CCCSc1n[nH]c(-c2ccc3c(c2)CCC3)n1` the IC50 was 5.44 µM and 19.5 µM. `CCOCCN1Cc2ncn(C)c2C(COCC2CCOCC2)C1` (stereo unspecified) gave an IC50 of over 100 µM. `Cc1ccc(CNC(=O)C2CCCCN2C(=O)OC(C)(C)C)cn1` (stereo unspecified) was tested, and the IC50 was over 100 µM. In the case of `CC(C)N1Cc2cccc(NCC(=O)N(C)C3CCCCC3)c2C1`, the IC50 is reported as over 100 µM. Compound `COc1cccc(N2CCN(C(=O)C(O)c3ccccc3Cl)CC2=O)c1` (stereo unspecified) has an IC50 of over 100 µM. With `O=C(O)c1csc(S(=O)(=O)Nc2cccc(OCC(F)(F)F)c2)c1` the IC50 was 36 µM and 20.4 µM. Work on `CC(NC(=O)NCC(C)(C)C(N)=O)c1nc(-c2ccccc2)cs1` (stereo unspecified) yielded an IC50 of over 100 µM. In the case of `Cn1cc(I)c(C(=O)NCCCn2cc(Br)cn2)n1`, the IC50 is reported as 9.34 µM and 48.9 µM. Work on `CN(C)c1ncnc2c1CCN(C(=O)c1cccnc1)CC2` yielded an IC50 of over 100 µM. In the case of `CC1(C)Cc2ccccc2-c2nc(NCCCO)[nH]c(=O)c21`, the IC50 is reported as 28.6 µM and 27.1 µM. With `Cc1ncc(CN)c(-c2cn(C)c3ccccc23)n1` the IC50 was 89.1 µM and > 100 µM. In the case of `Cc1n[nH]c(C)c1CCC(=O)NCC1(O)CCN(c2ccccn2)C1` (stereo unspecified), the IC50 is reported as over 100 µM. `Cc1n[nH]c(SCC(=O)N2C[C@H]3CC[C@@H]2CN(c2ncccn2)C3)n1` was tested, and the IC50 was over 100 µM. With `O=C(c1ccc(-n2cc(Br)cn2)cc1)N1CCN(c2cnccn2)CC1` the IC50 was 2.63 µM and 3.37 µM. `Cc1ccc(C)c(OC2CCN(C(=O)CNc3ccccc3Cl)CC2)c1` was tested, and the IC50 was 10.7 µM and 12.7 µM. Work on `CC1(NC(=O)Cc2csc(NC(=O)c3ccccc3)n2)CCS(=O)(=O)C1` (stereo unspecified) yielded an IC50 of over 100 µM. With `Cn1cc(-c2cc(C(F)F)n3nc(CCC(=O)O)nc3n2)cn1` the IC50 was 12 µM and 19.8 µM. In the case of `CCN(CC)C(=O)c1nnc2ccc(N3CCOCC3)cc2n1`, the IC50 is reported as 6.1 µM and 15.9 µM. In the case of `CS(=O)(=O)NCc1cc(-c2cc(F)cc(F)c2)nc(N2CC[C@H](O)C2)n1`, the IC50 is reported as over 100 µM. For `Cc1ncc(CNCC(C)O)c2cc(C(=O)c3ccc(Br)cc3)oc12` (stereo unspecified), the IC50 was over 100 µM. For `O=C(c1cnc2c(cnn2C2CCCC2)c1)N1CCN(CCO)CC1`, the IC50 was over 100 µM. Compound `CCC(CNC(=O)COC)Oc1cccc(F)c1` (stereo unspecified) has an IC50 of over 100 µM. In the case of `CNc1cncc(C2CCCN2C(=O)Cn2c(=O)oc3ccccc32)n1` (stereo unspecified), the IC50 is reported as 30.2 µM and > 57.5 µM. With `CCOCCC(=O)N1CCc2cccc(S(=O)(=O)N3CCOCC3)c2C1` the IC50 was > 100 µM and 20.4 µM. With `O=C(O)CSc1nccc(-c2ccc3c(c2)OCO3)n1` the IC50 was 16.4 µM and 18.6 µM. Compound `CSc1ccc2cc(CN(C)CCO)c(=O)[nH]c2c1` has an IC50 of 31.4 µM. `Cc1cccc(COc2ccc(NC(=O)C(C)NC(N)=O)c(C)c2)c1` (stereo unspecified) gave an IC50 of over 100 µM. `N#Cc1cccnc1N1CCCC(CO)(Cc2cccc(Cl)c2)C1` (stereo unspecified) was tested, and the IC50 was 26.7 µM and 23.5 µM. `Cc1cccc(OC2CCN(c3nccnc3C#N)CC2)n1` was tested, and the IC50 was 42.2 µM and 46 µM. `CN(C)c1ccc(-c2nnc([C@H]3CCN(C4CCCCC4)C3)o2)cc1` was tested, and the IC50 was over 100 µM. Work on `COC(=O)c1sc2cccc(F)c2c1CNC(=O)C1CCOC1` (stereo unspecified) yielded an IC50 of over 100 µM. Compound `CC[C@H](C)[C@H](N)C(=O)Nc1nc(-c2cnc(N(C)C)nc2)cs1` has an IC50 of over 100 µM. `CC(NC(=O)Nc1cccnc1N1CCCC1)c1nncn1C` (stereo unspecified) was tested, and the IC50 was over 100 µM. With `Cc1ccc(NC(=O)c2nc3c(s2)CCCN3C(=O)C2CC2)cn1` the IC50 was over 100 µM. With `Cn1ccc(C(=O)NCc2cccc(CN3CCCC3)c2)cc1=O` the IC50 was over 100 µM. With `Cn1cc(-c2ccnc(NCC3CCN(Cc4ccccc4)C3)n2)cn1` (stereo unspecified) the IC50 was > 100 µM and 60.6 µM. `Cn1c(NCC(=O)N2CCCC2)c(C#N)c(=O)n(C)c1=O` was tested, and the IC50 was over 100 µM. `N#Cc1c(N2CCCN(C3CCOCC3)CC2)nc2ccccn12` gave an IC50 of over 100 µM. With `c1csc(-c2noc(CCCN3CCCC3Cn3cncn3)n2)c1` (stereo unspecified) the IC50 was over 100 µM. With `COc1ccc(-c2cc(C[C@@H]3C[C@H](N(C)C)C3(C)C)no2)cc1` the IC50 was 41.5 µM and > 100 µM. Work on `CC(NC(=O)N1CCC(CO)CC1)c1csc2ccccc12` (stereo unspecified) yielded an IC50 of over 100 µM. For `OCC1(CCOc2ccccc2)CCCN(c2ccc(Cl)cn2)C1` (stereo unspecified), the IC50 was 29 µM and 32.3 µM. In the case of `COCc1nc(C(=O)OCC2CCN(c3ccccc3)C2)cs1` (stereo unspecified), the IC50 is reported as > 100 µM and 16 µM. In the case of `Cn1cc(C[C@H]2[C@H](N3CCOCC3)CCN2c2ncc(F)cn2)cn1`, the IC50 is reported as over 100 µM. `c1ccc2c(c1)CN(c1ncnc3sc4c(c13)CCNC4)CCO2` showed an IC50 of over 100 µM. `CCn1c(SCC(=O)N2CCCC2)nc2cc(C)[nH]c2c1=O` showed an IC50 of over 100 µM. With `COCc1nc(C(=O)N2CCCC2c2ccc(OC)cc2)cs1` (stereo unspecified) the IC50 was over 100 µM. In the case of `CCNc1ncc(C(=O)N2CCc3c(nc(C)nc3N(C)C)C2)cn1`, the IC50 is reported as over 100 µM. Work on `CC(Nc1cnn(C)c(=O)c1Cl)c1ccc(F)c(F)c1` (stereo unspecified) yielded an IC50 of over 100 µM. With `N#Cc1cccc(N2CCC(CO)(CCOc3ccccc3)CC2)n1` the IC50 was 48.2 µM and 33.8 µM. `CCc1nnc(Nc2cccc(C3CCN(C(C)=O)CC3)n2)s1` gave an IC50 of over 100 µM.

Reference: ChEMBL document CHEMBL3988442, “University of Dundee, Small-Polar-MMV Screening Library” (2021)
